From patent publication US20260306491A1, “EGFR INHIBITOR FOR TREATING CANCERS COMPRISING ATYPICAL EGFR MUTATIONS” (ORIC Pharmaceuticals, Inc., priority 2023, published 2026)

Assay: Biodistribution in plasma and brain after single oral dose in female CB17 SCID mice
Format: in vivo
Conditions: mouse
Procedure: Female non-tumor bearing Fox Chase CB17 SCID mice were orally administered a single dose as specified in Table B1.
Brain tissues were excised and plasma was collected from all the animals receiving Compound I, or tucatinib at 1 hour, 4 hours, and 8 hours post-administration. Tucatinib was used as a reference agent. Tucatinib is a clinically approved therapy for HER2 positive breast cancer patients with brain metastases. The harvested brains were rinsed in ice-cold phosphate-buffered saline and weighed. All plasma and brain samples were stored at approximately −80° C. until thawed for LC-MS/MS analysis.
Prior to analysis, brain tissues were homogenized 1:5 with phosphate buffer. Average free brain-to-free plasma ratio (Kp,uu) was calculated from individual mice by using total concentration values determined in the brain and plasma at individual time points, or by calculating the area under the curve (AUC) and converting the values to free concentration (or AUC) with in vitro binding parameters determined in the brain (fu,b) and plasma (fu,p) as follows:
Kp,uu=Brain Concentration (or AUC)*fu,b/Plasma Concentration (or AUC)*fu,p.
Free fraction in the brain (fu,b) and in plasma (fu,p) was determined with equilibrium dialysis as follows: The brain tissue homogenate or plasma from the mice were spiked to yield a final concentration of 1 μM Compound I, or 5 μM tucatinib. Compound I and tucatinib were incubated in equilibrium dialysis plate on a shaking incubator at 37° C. with 5% CO2 at 450 rpm for 8 hours and 24 hours, respectively. Following the incubation, aliquots of the matrix and the buffer samples were sampled and the concentration of Compound I, or tucatinib were determined.
where fu,b,d is fraction unbound determined with 20% brain homogenate.

C=CC(=O)Nc1cc(Nc2cc(N3OCC[C@@H]3c3cc(F)cc(F)c3)ncn2)c(OC)cc1N1CCC(N2CCN(C3CC3)CC2)CC1 [Compound I, N-[2-[4-(4-cyclopropyl-1-piperazinyl)-1-piperidinyl]-5-[[6-[(3R)-3-(3,5-difluorophenyl)-2-isoxazolidinyl]-4-pyrimidinyl]amino]-4-methoxyphenyl]-2-propenamide]
Bioavailability profile in plasma and brain (oral 3 mg/kg): excellent bioavailability profile
Unbound brain concentration (oral 3 mg/kg, 8 h): below the limit of quantitation (BLOQ)
Unbound brain concentration compared to tucatinib (oral, 1 h and 4 h, 3 mg/kg Compound I vs 50 mg/kg tucatinib): much higher unbound brain concentration
Unbound plasma concentration relative to tucatinib (oral, 8 h, 3 mg/kg Compound I vs 50 mg/kg tucatinib): about 15 fold
Total area under the curve (AUC) higher than that of tucatinib (oral, first eight hours, 3 mg/kg Compound I vs 50 mg/kg tucatinib, brain context): about 800%
Blood-brain barrier penetration compared to tucatinib (oral, 3 mg/kg Compound I vs 50 mg/kg tucatinib): superior ability of Compound I to penetrate the blood-brain barrier as compared to tucatinib
